This assay deals with sheep body lice (Bovicola ovis), diazinon resistant. Nature of the assay: Long wool lice efficacy study, single subcutaneous dose, Merino sheep with 3 months wool growth. The assay is classed as in vivo. Here is the method: In this study the efficacy of fluralaner when administered once subcutaneously at doses of 1 and 2 mg/kg body weight against sheep body lice (Bovicola ovis) infestation on Merino sheep with 3 months wool growth was evaluated.
Fluralaner was administered to sheep in Groups 2 and 3 on Day 0 at 1 and 2 mg fluralaner/kg bodyweight respectively. Group 1 was left untreated as a negative control.
Pre-treatment lice counts were conducted on Day −1 and used to allocate sheep to treatment groups. Post-treatment lice counts were conducted 7, 14, 21, 42, 84 and 140 days±1-day post-treatment. Lice counts were performed as discussed in Example 1.

Turning to `Cc1cc(C2=NOC(c3cc(Cl)cc(Cl)c3)(C(F)(F)F)C2)ccc1C(=O)NCC(=O)NCC(F)(F)F` (centres unmarked) [Fluralaner, 4-[5-(3,5-dichlorophenyl)-5-trifluoromethyl-4,5-dihydroisoxazol-3-yl]-2-methyl-N-[(2,2,2-trifluoro-ethylcarbamoyl)-methyl]-benzamide], the “time until activity reached the required level” value (1.0 mg/kg dose rate) is listed as no more than 42 days post-treatment. Moreover, under “1 mg/kg s.c.”, the “Sheep Body Lice Efficacy Based on Geometric Means Day 7” value is 81.8%, the “Sheep Body Lice Efficacy Based on Geometric Means Day 14” value is 97.2%, the “Sheep Body Lice Efficacy Based on Geometric Means Day 21” value came out at 99.6% and the “Sheep Body Lice Efficacy Based on Geometric Means Day 42” value stood at 100.0%. Also, under “1 mg/kg s.c.”, the “Sheep Body Lice Efficacy Based on Geometric Means Day 84” value is given as 100.0% and the “Sheep Body Lice Efficacy Based on Geometric Means Day 140” value amounted to 100.0%. In addition, the “time until efficacy reached the required level” value (2.0 mg/kg dose rate) was no more than 14 days post-treatment. Under “2 mg/kg s.c.”, the “Sheep Body Lice Efficacy Based on Geometric Means Day 7” value worked out at 95.2%, the “Sheep Body Lice Efficacy Based on Geometric Means Day 14” value is 100.0%, the “Sheep Body Lice Efficacy Based on Geometric Means Day 21” value amounted to 100.0% and the “Sheep Body Lice Efficacy Based on Geometric Means Day 42” value is reported as 100.0%. Moreover, for the setting “2 mg/kg s.c.”, the “Sheep Body Lice Efficacy Based on Geometric Means Day 84” value was 100.0% and the “Sheep Body Lice Efficacy Based on Geometric Means Day 140” value stood at 100.0%.
